Measurements taken from patent publication US10160748B2 (AbbVie Inc., priority 2015, dated 2018).

Molecular target: TNFα trimer (Homo sapiens, UniProt P01375)
Assay: TNFα FP Competitive Binding Assay
Settings: FP binding assay; 20 nM TNFα trimer, 1 nM OregonGreen488 probe; read-out: TNF IC50
Experimental: TNFα FP Competitive Binding Assay
• 1. Assay Buffer: Prepare 1× Assay Buffer (Water with 47 mM HEPES, 47 mM NaCl, 0.9 mM EDTA, 0.0071% Triton X-100) by adding 25 mL of 1 M HEPES, 5 mL of 5 M NaCl, 1 mL of 0.5 M EDTA, and 375 μL of a 10% Triton X-100 stock to a fresh 500 mL bottle of water. • 2. Assay Mixture: Prepare fresh Assay Mixture containing 20 nM TNFα trimer (60 nM protein) and 1 nM 2′,7′-difluoro-3′,6′-dihydroxy-N-(2-(2-(2-((4-(isoquinolin-8-yl)-3-(4-(isoquinolin-8-yl)phenethoxy)benzyl)oxy)ethoxy)ethoxy)ethyl)-3-oxo-3H-spiro[isobenzofuran-1,9′-xanthene]-5-carboxamide probe in 1× Assay Buffer. Compound Plate Preparation Manual 12-Point 1:3 Dilution Plates: (384 Well Polypropylene Plates)
Top concentration of compounds, 10 mM in DMSO, dispensed in rows A-O in columns 1 and 13. Compounds are serially diluted 1:3 with DMSO in columns 2-12 or 14-24 using a 16-channel Matrix pipettor. Plates stored at −20° C.
Discovery Preps 12-Point 1:3 Dilution Plates: (384 Well Assay Plates)
Top concentration, 5 mM in DMSO, of compounds placed in rows A-O in columns 1 and 13. Compounds are serially diluted 1:3 with DMSO in columns 2-12 or 14-24. Compound solutions are dispensed into replicate assay plates at 410 nL per well. Plates stored at 4° C.
TNFα FP Competitive Binding Assay Protocol
• 1. Compound plates warmed to rt. • 2. Fresh Assay Mixture is prepared. • 3. Assay Mixture (20 μL) is dispensed each well of 384 assay plates using a Thermo Multidrop Combi or 16-channel Matrix pipettor. If Manual 12-point 1:3 Dilution Plates are to be tested, Assay Mix is dispensed into empty plates. Discovery Preps 12-point 1:3 Dilution Plates already contain 410 nL compound solution in DMSO. • 4. For Manual 12-point 1:3 Dilution Plates, 0.7 μL is manually transferred using a 16-channel Matrix pipettor to replicate assay plates containing 20 μL Assay Mixture for a final top compound concentration of 338 μM (3.4% DMSO). • 5. For Discovery Preps 12-point 1:3 Dilution Plates, 20 μL Assay Mixture added the 410 nL compound solution already in the plates yields a final top compound concentration of 100 μM (2.0% DMSO). • 6. Background subtraction controls are wells P1-P8 containing only Assay Buffer. The low % inhibition controls are wells P9-P16 containing only Assay Mix. The high % inhibition are wells P17-P24 containing only 1 nM 2′,7′-difluoro-3′,6′-dihydroxy-N-(2-(2-(2-((4-(isoquinolin-8-yl)-3-(4-(isoquinolin-8-yl)phenethoxy)benzyl)oxy)ethoxy)ethoxy)ethyl)-3-oxo-3H-spiro[isobenzofuran-1,9′-xanthene]-5-carboxamide probe in 1× Assay Buffer. • 7. Plates are incubated at rt for 18-24 h in 37° C. incubator (CO2 is off). • 8. Prior to reading the assay, the plates are placed in a dark cabinet to equilibrate at rt for one hour. • 9. Background-subtracted fluorescence polarization (mP) is measured using a PerkinElmer Envision plate reader. • 10. Raw data is entered into Assay Explorer and dose-response curves are generated using a variable slope curve. Supplies, Materials, and Reagents

TNFα trimer, sequence (P01375 77-233 limits assumed): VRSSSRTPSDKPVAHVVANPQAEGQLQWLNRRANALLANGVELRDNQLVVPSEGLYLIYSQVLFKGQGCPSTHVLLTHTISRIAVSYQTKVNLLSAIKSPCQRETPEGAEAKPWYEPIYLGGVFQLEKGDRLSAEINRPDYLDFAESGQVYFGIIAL

Row | IC50 [nM] | SMILES
1 | < 1000 | Cc1ccc(C(F)(F)F)c(Cn2c3cc(-c4cnc(N5CCN(C(=O)CO)C[C@H]5C)nc4)ccc3c(=O)n2C)n1 [Example 19.5]
2 | 1000 to 10000 | Cn1c(=O)c2cc(F)c(-c3cnc(C(C)(C)O)nc3)cc2n1Cc1ccccc1OC(F)F [Example 40, 1-(2-(Difluoromethoxy)benzyl)-5-fluoro-6-(2-(2-hydroxypropan-2-yl)pyrimidin-5-yl)-2-methyl-1H-indazol-3(2H)-one]
3 | 1000 to 10000 | Cc1cccc([C@@H](C)n2c3cc(-c4cnc(N5CCN(C(=O)CO)[C@H](C)C5)nc4)ccc3c(=O)n2C)c1 (single isomer, unassigned) [Example 118]
4 | 1000 to 10000 | Cn1cc(C(F)(F)F)c(Cn2c3cc(-c4cnc(N5CCN6C(=O)NC[C@H]6C5)nc4)ccc3c(=O)n2C)n1 [Example 72, (S)-7-(5-(2-methyl-1-((1-methyl-4-(trifluoromethyl)-1H-pyrazol-3-yl)methyl)-3-oxo-2,3-dihydro-1H-indazol-6-yl)pyrimidin-2-yl)hexahydroimidazo[1,5-a]pyrazin-3(2H)-one]
5 | < 1000 | Cn1c(=O)c2ccc(-c3cnc(N4CCN5C(=O)OC[C@H]5C4)nc3)cc2n1Cc1ccccc1OC(F)F [Example 2.25]
6 | < 1000 | C[C@H](N)C(=O)OCc1ccc(OC(F)F)c(Cn2c3cc(-c4cnc(N5CCN6C(=O)NC[C@@H]6C5)nc4)ccc3c(=O)n2C)c1 [Example 14.15]
7 | < 1000 | CC(=O)N1CCN(c2ncc(-c3ccc4c(=O)n(C)n(Cc5cc(C)ccc5OC(F)F)c4c3)cn2)C[C@@H]1CO [Example 22.11]
8 | < 1000 | C[C@@H]1CN(c2ncc(-c3ccc4c(=O)n(C)n(Cc5ccccc5OC(F)F)c4c3)cn2)CCN1C(=O)[C@@H]1COC(C)(C)O1 [Example 38* Step 1, 1-(2-(Difluoromethoxy)benzyl)-6-(2-((R)-4-((S)-2,2-dimethyl-1,3-dioxolane-4-carbonyl)-3-methylpiperazin-1-yl)pyrimidin-5-yl)-2-methyl-1H-indazol-3(2H)-one]
9 | > 10000 | Cn1c(=O)c2ccc(-c3cnn(C4CCOCC4)c3)cc2n1Cc1ccccc1OC(F)F [Example 5.7]
10 | 1000 to 10000 | CC(=O)N1CCN(c2ncc(-c3ccc4c(=O)n(Cc5cccc(C#N)c5)n(Cc5ccccc5Cl)c4c3)cn2)C[C@H]1C [Example #134*, (R)-3-((6-(2-(4-Acetyl-3-methylpiperazin-1-yl)pyrimidin-5-yl)-1-(2-chlorobenzyl)-3-oxo-1H-indazol-2(3H)-yl)methyl)benzonitrile]
11 | 1000 to 10000 | Cn1c(=O)c2ccc(-c3cnc(CC4(C)COC4)nc3)cc2n1Cc1ccccc1OC(F)F [Example 12, 1-(2-(Difluoromethoxy)benzyl)-2-methyl-6-(2-((3-methyloxetan-3-yl)methyl)pyrimidin-5-yl)-1H-indazol-3(2H)-one]
12 | < 1000 | C[C@@H]1CN(c2ncc(-c3nc4c(cc3F)c(=O)n(C)n4Cc3ccccc3OC(F)F)cn2)CCN1C(=O)CO [Example 24.11]
13 | < 1000 | Cn1c(=O)c2ccc(-c3cnc(C(C)(C)O)nc3)cc2n1Cc1cc(Cc2cn[nH]c2)ccc1OC(F)F [Example 111, 1-(5-((1H-Pyrazol-4-yl)methyl)-2-(difluoromethoxy)benzyl)-6-(2-(2-hydroxypropan-2-yl)pyrimidin-5-yl)-2-methyl-1H-indazol-3(2H)-one]
14 | 1000 to 10000 | Cc1cc2c(=O)n(C)n(Cc3ccccc3OC(F)F)c2cc1-c1cnc(N2CCNC(=O)C2)nc1 [Example 13.2]
15 | < 1000 | CC(=O)N1CCN(c2ncc(-c3ccc4c(=O)n(C)n(Cc5cc(C)ccc5OC(F)F)c4c3)c(C)n2)[C@H](C)C1 [Example 22.14]
16 | < 1000 | CC(=O)N1CCN(c2ncc(-c3ccc4c(=O)n(C)n(Cc5cc(C)ccc5OC(F)F)c4c3)cn2)C[C@H]1C (single isomer, unassigned) [Example 54]
17 | > 10000 | Cn1c(=O)c2ccc(-c3cnc(N4CCOCC4)nc3)cc2n1C(=O)c1ccccc1OC(F)F [Example 1.7]

Row | IC50 [nM] | SMILES
18 | 1000 to 10000 | Cc1ccc(CO)cc1Cn1c2cc(-c3cnc(N4CCOCC4)nc3)ccc2c(=O)n1C [Example 56, 1-(5-(Hydroxymethyl)-2-methylbenzyl)-2-methyl-6-(2-morpholinopyrimidin-5-yl)-1H-indazol-3(2H)-one]
19 | < 1000 | CC(=O)N1CCN(c2ncc(-c3ccc4c(=O)n(C)n(Cc5cc(CC#N)ccc5OC(F)F)c4c3)cn2)C[C@H]1C [Example 27.3]
20 | 1000 to 10000 | CC(=O)N1CC[C@H](Nc2ncc(-c3ccc4c(=O)n(C)n(Cc5ccccc5OC(F)F)c4c3)cn2)C1 [Example 3, (S)-6-(2-((1-Acetylpyrrolidin-3-yl)amino)pyrimidin-5-yl)-1-(2-(difluoromethoxy)benzyl)-2-methyl-1H-indazol-3(2H)-one]
21 | < 1000 | Cc1ccc(OC(F)F)c(Cn2c3cc(-c4cnc(N5CCN(S(C)(=O)=O)[C@H](C)C5)nc4)ccc3c(=O)n2C)c1 [Example 24, (R)-1-(2-(Difluoromethoxy)-5-methylbenzyl)-2-methyl-6-(2-(3-methyl-4-(methylsulfonyl)piperazin-1-yl)pyrimidin-5-yl)-1H-indazol-3(2H)-one]
22 | 1000 to 10000 | Cc1cnc(C(F)(F)F)c(Cn2c3cc(-c4cnc(N5CCN6C(=O)NC[C@H]6C5)nc4)ccc3c(=O)n2C)c1 [Example 29.1]
23 | < 1000 | CCC(c1cccc(C)c1)n1c2cc(-c3cnc(N4CCN(C(=O)CO)[C@H](C)C4)nc3)ccc2c(=O)n1C (stereo partly drawn) [Example 24.3]
24 | 1000 to 10000 | Cn1c(=O)c2ccc(-c3cnc(C(C)(C)O)nc3)cc2n1Cc1cc(N2CCOCC2)ccc1OC(F)F [Example 125, 1-(2-(Difluoromethoxy)-5-morpholinobenzyl)-6-(2-(2-hydroxypropan-2-yl)pyrimidin-5-yl)-2-methyl-1H-indazol-3(2H)-one]
25 | < 1000 | [2H]C([2H])([2H])n1c(=O)c2ccc(-c3cnc(N4CCN(C(C)=O)[C@H](C)C4)nc3)cc2n1Cc1cc(C)ccc1OC(F)F [Example 63, (R)-6-(2-(4-Acetyl-3-methylpiperazin-1-yl)pyrimidin-5-yl)-1-(2-(difluoromethoxy)-5-methylbenzyl)-2-methyl-d3-1H-indazol-3(2H)-one]
26 | < 1000 | Cn1c(=O)c2ccc(-c3cnc(N4CCN5C(=O)NCC5C4)nc3)cc2n1Cc1ccccc1OC(F)F (stereo not drawn) [Example 2.27, 7-(5-(1-(2-(Difluoromethoxy)benzyl)-2-methyl-3-oxo-2,3-dihydro-1H-indazol-6-yl)pyrimidin-2-yl)hexahydroimidazo[1,5-a]pyrazin-3(2H)-one]
27 | < 1000 | CC(=O)N1CCN(c2ncc(-c3ccc4c(=O)n(C)n(Cc5nc(C)ccc5C(F)(F)F)c4c3)cn2)C[C@H]1C [Example 19.1]
28 | > 10000 | O=c1[nH]n(Cc2ccccc2OC(F)F)c2cc(-c3cnc(N4CCOCC4)nc3)ccc12 [Example 6.1, 1-(2-(difluoromethoxy)benzyl)-6-(2-morpholinopyrimidin-5-yl)-1H-indazol-3(2H)-one]
29 | < 1000 | Cc1cccc([C@H](C)n2c3cc(-c4cnc(N5CCN(C(=O)CO)[C@H](C)C5)nc4)ccc3c(=O)n2C)c1 (single isomer, unassigned) [Example 117]
30 | < 1000 | C[C@@H]1CN(c2ncc(-c3ccc4c(=O)n(C)n(Cc5ccccc5OC(F)F)c4c3C#N)cn2)CCN1C(=O)CO [Example 23.3]
31 | < 1000 | CC(C)[C@H](N)C(=O)OCc1ccc(OC(F)F)c(Cn2c3cc(-c4cnc(N5CCN6C(=O)NC[C@@H]6C5)nc4)ccc3c(=O)n2C)c1 [Example 14.16]
32 | < 1000 | C[C@@H]1CN(c2ncc(-c3ccc4c(=O)n(C)n(Cc5cc(CC#N)ccc5OC(F)F)c4c3)cn2)CCN1C(=O)CO [Example 24.1]
33 | 1000 to 10000 | CC(=O)N1CCN(c2ncc(-c3ccc4c(=O)n(C)n(Cc5cccc6c5SCC(=O)NC6)c4c3)cn2)C[C@H]1C [Example 52, (R)-9-((6-(2-(4-Acetyl-3-methylpiperazin-1-yl)pyrimidin-5-yl)-2-methyl-3-oxo-2,3-dihydro-1H-indazol-1-yl)methyl)-4,5-dihydrobenzo[f][1,4]thiazepin-3(2H)-one]
